This passage reports MIC and Km results from publication doi:10.1101/466938v1, “The distinct biochemical property enables thymidylate kinase as a drug target and participates in pyrimidine drug sensitivity in Candida albicans” (biorxiv, 2018).

The test system of experiment [1] is T1, Candida albicans F2015b076.
T1 construct: F2015b076
The experiment is described as follows: microbe, parasite or virus in culture. Set-up: species or system Candida albicans strains; CLSI M27 broth microdilution, RPMI 1640, OD600 growth, MIC at 50% inhibition. The conditions noted are these: F2015B076, 24 h, read-out: 5-FUrd MIC (µg/mL). The protocol: (§1) Minimum inhibitory concentrations (MICs) of 5-FUrd were determined by broth microdilution method in accordance with the guidelines in Clinical and Laboratory Standards Institute (CLSI) document M27[25], using RPMI 1640 medium containing 0.165 M MOPs (pH 7.0) and 0.2% glucose, an inoculum of 10^3 cells/well, and incubated for 24 hr at 35°C, followed by OD600 reading by TECAN SPARK plate reader. The MIC50 of 5-FUrd was determined as the lowest dosage of 5-FUrd causing 50% inhibition of the growth by using the concentrations in the range of 0.004-2μg/mL. MICs of […] of human use (5-FC; four azoles: posaconazole, voriconazole, itraconazole, fluconazole; and three echinocandins: anidulafungin, caspofungin and micafungin) were determined by the microdilution colorimetric Sensititre YeastOne SYO-09 panel (TREK Diagnostic Systems, Cleveland, OH, USA); in accordance with the manufacturer’s instructions. MICs values were determined visually, after 24 hours of incubation, as the lowest concentration of drug that caused complete inhibition (amphotericin B) or a significant diminution (≥50% inhibition; flucytosine, azoles and echinocandins) of growth relative to that of the growth control. Table 2. Minimum inhibitory concentrations of 5-FUrd and antifungal drugs of clinical used for pathogenic and drug-resistant isolates of Candida albicans^a We further tested the 5-FUrd sensitivity of a number of pathogenic C. albicans isolates from patients. […] Because 5-FC is intracellularly metabolized to 5-FU, we asked why the 5-FC-resistant isolates remained sensitive to 5-FUrd. Several mutations in 5-FC resistant strains were identified in the enzymes involved in the formation of 5-FUMP from 5-FC, including purine-cytosine permease (Fcy2), cytosine deaminase (Fca1) and uracil phosphoribosyltransferase (Fur1). These 5-FC-resistant but 5-FUrd-sensitive strains might have mutations in these genes. 5-FUrd is transported into C. albicans through uridine permease (Fui1) and is then phosphorylated to 5-FUMP by uridine kinase (Urk1). Presumably, activation of 5-FUrd metabolism by the Fui1 and Urk1 pathways can overcome the defects in genes mediating 5-FC activation, namely, Fcy2, Fca1 and Fur1, leading to toxicity, as depicted in Fig 6. One important effect of antifungal drugs is host liver toxicity.

For experiment [2], the system named is T2, Candida albicans F2016c087.
T2 construct: F2016c087
The experiment is described as follows: microbe, parasite or virus in culture. Set-up: species or system Candida albicans strains; CLSI M27 broth microdilution, RPMI 1640, OD600 growth, MIC at 50% inhibition. The conditions noted are these: F2016C087, 24 h, read-out: 5-FUrd MIC (µg/mL). The protocol:
as §1

In experiment [3] the test system is T3, Candida albicans F2015f019.
T3 construct: F2015f019
The experiment is described as follows: microbe, parasite or virus in culture. More on the design: species or system Candida albicans strains; CLSI M27 broth microdilution, RPMI 1640, OD600 growth, MIC at 50% inhibition. The conditions noted are these: F2015F019, 24 h, read-out: 5-FUrd MIC (µg/mL). As to the method:
as §1

The test system of experiment [4] is T4, Candida albicans F2016a067.
T4 construct: F2016a067
The experiment is described as follows: microbe, parasite or virus in culture. To be noted: F2016A067, 24 h, read-out: 5-FUrd MIC (µg/mL). More on the design: species or system Candida albicans strains; CLSI M27 broth microdilution, RPMI 1640, OD600 growth, MIC at 50% inhibition. As to the method:
as §1

Experiment [5] relates to T5, Candida albicans F2017g023.
T5 construct: F2017g023
Nature of the experiment: microbe, parasite or virus in culture. Set-up: species or system Candida albicans strains; CLSI M27 broth microdilution, RPMI 1640, OD600 growth, MIC at 50% inhibition. The conditions noted are these: F2017G023, 24 h, read-out: 5-FUrd MIC (µg/mL). The protocol:
as §1

The subject of the next experiment is T6, Candida albicans SC5314.
T6 construct: SC5314
Nature of the experiment: microbe, parasite or virus in culture. The conditions noted are these: SC5314, 24 h, read-out: 5-FUrd MIC (µg/mL). Set-up: species or system Candida albicans strains; CLSI M27 broth microdilution, RPMI 1640, OD600 growth, MIC at 50% inhibition. As to the method:
as §1

The test system of experiment [6] is T7, Candida albicans F2014a093.
T7 construct: F2014a093
Nature of the experiment: microbe, parasite or virus in culture. Set-up: species or system Candida albicans strains; CLSI M27 broth microdilution, RPMI 1640, OD600 growth, MIC at 50% inhibition. The conditions noted are these: F2014A093, 24 h, read-out: 5-FUrd MIC (µg/mL). As to the method:
as §1

For experiment [7], the system named is T8, Candida albicans F2016g048.
T8 construct: F2016g048
Nature of the experiment: microbe, parasite or virus in culture. Set-up: species or system Candida albicans strains; CLSI M27 broth microdilution, RPMI 1640, OD600 growth, MIC at 50% inhibition. To be noted: F2016G048, 24 h, read-out: 5-FUrd MIC (µg/mL). As to the method: as §1

In experiment [8] the test system is T9, Candida albicans F2016e085.
T9 construct: F2016e085
Nature of the experiment: microbe, parasite or virus in culture. To be noted: F2016E085, 24 h, read-out: 5-FUrd MIC (µg/mL). More on the design: species or system Candida albicans strains; CLSI M27 broth microdilution, RPMI 1640, OD600 growth, MIC at 50% inhibition. As to the method:
as §1

Experiment [9] deals with T10, Candida albicans F2014f090.
T10 construct: F2014f090
The experiment is described as follows: microbe, parasite or virus in culture. More on the design: species or system Candida albicans strains; CLSI M27 broth microdilution, RPMI 1640, OD600 growth, MIC at 50% inhibition. The conditions noted are these: F2014F090, 24 h, read-out: 5-FUrd MIC (µg/mL). The protocol: as §1

Experiment [10] has as its system T11, Candida albicans F2016f024.
T11 construct: F2016f024
Nature of the experiment: microbe, parasite or virus in culture. More on the design: species or system Candida albicans strains; CLSI M27 broth microdilution, RPMI 1640, OD600 growth, MIC at 50% inhibition. The conditions noted are these: F2016F024, 24 h, read-out: 5-FUrd MIC (µg/mL). As to the method:
as §1

The subject of experiment [11] is T12, Candida albicans ATCC90028.
T12 construct: ATCC 90028
Nature of the experiment: microbe, parasite or virus in culture. Set-up: species or system Candida albicans strains; CLSI M27 broth microdilution, RPMI 1640, OD600 growth, MIC at 50% inhibition. The conditions noted are these: ATCC90028, 24 h, read-out: 5-FUrd MIC (µg/mL). The protocol:
as §1

In the next experiment the target is T13, CaTMPK (Candida albicans, UniProt Q59TV7).
T13 construct: gene CAALFM_C111790WA; pGEX-2T in E. coli BL21; N-terminal GST cut by thrombin; CTG codon changed to TCG to keep native Ser68; synthetic gene GenScript #5001191-1
T13 sequence (Q59TV7 1-224 limits assumed): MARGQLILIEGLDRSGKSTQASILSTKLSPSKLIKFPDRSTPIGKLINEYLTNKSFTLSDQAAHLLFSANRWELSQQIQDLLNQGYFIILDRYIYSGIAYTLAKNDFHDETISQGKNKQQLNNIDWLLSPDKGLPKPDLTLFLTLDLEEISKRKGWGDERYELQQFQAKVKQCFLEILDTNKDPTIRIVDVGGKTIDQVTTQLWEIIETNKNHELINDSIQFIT
The experiment is described as follows: NADH-coupled assay (pyruvate kinase / lactate dehydrogenase). The conditions noted are these: 2 mM ATP, 100 mM Tris-HCl, 100 mM KCl, 10 mM MgCl2. It is filed as biochemical.

The target in another experiment is T14, hTMPK (Homo sapiens, UniProt P23919).
T14 construct: gene DTYMK; pGEX-2T in E. coli BL21; N-terminal GST cut by thrombin
T14 sequence (P23919 1-212): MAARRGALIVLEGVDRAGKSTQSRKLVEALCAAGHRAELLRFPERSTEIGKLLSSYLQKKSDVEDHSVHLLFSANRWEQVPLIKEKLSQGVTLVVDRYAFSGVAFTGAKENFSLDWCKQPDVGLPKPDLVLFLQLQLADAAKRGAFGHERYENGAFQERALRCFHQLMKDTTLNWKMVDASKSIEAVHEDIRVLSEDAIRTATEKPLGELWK
Described as above. It is filed as biochemical. The conditions noted are these: 2 mM ATP, 100 mM Tris-HCl, 100 mM KCl, 10 mM MgCl2.

In brackets after ≈: the same amount, converted by molar mass.

On to `O=c1[nH]c(=O)n([C@@H]2O[C@H](CO)[C@@H](O)[C@H]2O)cc1F` [5-FUrd, 5-fluorouridine], for which the MIC stood at 0.026 ± 0.001 µg/mL (≈ 0.0992 µM) in experiment [1]; 0.021 ± 0.008 µg/mL (≈ 0.0801 µM) in experiment [2]; 0.036 ± 0.008 µg/mL (≈ 0.137 µM) in [3]; 0.049 ± 0.001 µg/mL (≈ 0.187 µM) in experiment [4]; 0.043 ± 0.001 µg/mL (≈ 0.164 µM) in experiment [5]; 0.044 ± 0.003 µg/mL (≈ 0.168 µM) with Candida albicans SC5314. The MIC was determined as 0.021 ± 0.001 µg/mL (≈ 0.0801 µM) in [6]; 0.063 ± 0.012 µg/mL (≈ 0.24 µM) in experiment [7]; 0.076 ± 0.02 µg/mL (≈ 0.29 µM) in [8]; 0.028 ± 0.002 µg/mL (≈ 0.107 µM) in [9]; 0.031 ± 0.003 µg/mL (≈ 0.118 µM) in [10]; 0.03 ± 0.011 µg/mL (≈ 0.114 µM) in experiment [11].
In the case of `O=c1ccn([C@H]2C[C@H](O)[C@@H](COP(=O)(O)O)O2)c(=O)[nH]1` [dUMP], the Km entry at CaTMPK was “Steady-state kinetics of CaTMPK and hTMPK using different dUMP concentrations”; at hTMPK it was “Steady-state kinetics of CaTMPK and hTMPK using different dUMP concentrations”.
